target: LRRK2 G2019S enzyme (Homo sapiens (Human), UniProt Q5S007, G2019S); test: LRRK2 G2019S TR-FRET biochemical assay (LRRKtide substrate); details: 134 μM ATP
Method: Detection Reaction Conditions • 1× TR-FRET dilution buffer • 10 mM EDTA • 2 nM antibody • 23° C. reaction temperature • 10 μL total reaction volume
Compounds were prepared by initially diluting to 1 mM with DMSO. 35 μL of reference compound solution, 35 μL of test compound solution, and 35 μL HPE were successively added to the source plate (384-well assay plate, Labcyte). The plates were centrifuged at 2500 rpm for 1 minute and sealed in foil. […] The assay plate was centrifuged at 2500 rpm for 1 minute, and sealed with foil.
To perform the enzyme reaction, 5 μL of LRRKtide substrate and kinase mixture in assay buffer was added to all wells of the assay plate. The plate was centrifuged to concentrate the mixture at the bottom of the wells. The assay plate was incubated at 23° C. for 20 minutes. Following incubation, 5 μL of 2× ATP in assay buffer was added to each well, and plates were centrifuged to concentrate the mixture at the bottom of the wells. The plate was incubated at 23° C. for 60 minutes.
To perform the detection of the reaction, EDTA completely mixed in TR-FRET dilution buffer was added to antibody reagent. 10 μL of detection reagent was added to all wells of each well of the assay plate and the plate was centrifuged to concentrate the mixture at the bottom of the wells. The plate was then incubated at 23° C. for 60 minutes.

Sequence of LRRK2 G2019S enzyme (Q5S007 whole entry G2019S): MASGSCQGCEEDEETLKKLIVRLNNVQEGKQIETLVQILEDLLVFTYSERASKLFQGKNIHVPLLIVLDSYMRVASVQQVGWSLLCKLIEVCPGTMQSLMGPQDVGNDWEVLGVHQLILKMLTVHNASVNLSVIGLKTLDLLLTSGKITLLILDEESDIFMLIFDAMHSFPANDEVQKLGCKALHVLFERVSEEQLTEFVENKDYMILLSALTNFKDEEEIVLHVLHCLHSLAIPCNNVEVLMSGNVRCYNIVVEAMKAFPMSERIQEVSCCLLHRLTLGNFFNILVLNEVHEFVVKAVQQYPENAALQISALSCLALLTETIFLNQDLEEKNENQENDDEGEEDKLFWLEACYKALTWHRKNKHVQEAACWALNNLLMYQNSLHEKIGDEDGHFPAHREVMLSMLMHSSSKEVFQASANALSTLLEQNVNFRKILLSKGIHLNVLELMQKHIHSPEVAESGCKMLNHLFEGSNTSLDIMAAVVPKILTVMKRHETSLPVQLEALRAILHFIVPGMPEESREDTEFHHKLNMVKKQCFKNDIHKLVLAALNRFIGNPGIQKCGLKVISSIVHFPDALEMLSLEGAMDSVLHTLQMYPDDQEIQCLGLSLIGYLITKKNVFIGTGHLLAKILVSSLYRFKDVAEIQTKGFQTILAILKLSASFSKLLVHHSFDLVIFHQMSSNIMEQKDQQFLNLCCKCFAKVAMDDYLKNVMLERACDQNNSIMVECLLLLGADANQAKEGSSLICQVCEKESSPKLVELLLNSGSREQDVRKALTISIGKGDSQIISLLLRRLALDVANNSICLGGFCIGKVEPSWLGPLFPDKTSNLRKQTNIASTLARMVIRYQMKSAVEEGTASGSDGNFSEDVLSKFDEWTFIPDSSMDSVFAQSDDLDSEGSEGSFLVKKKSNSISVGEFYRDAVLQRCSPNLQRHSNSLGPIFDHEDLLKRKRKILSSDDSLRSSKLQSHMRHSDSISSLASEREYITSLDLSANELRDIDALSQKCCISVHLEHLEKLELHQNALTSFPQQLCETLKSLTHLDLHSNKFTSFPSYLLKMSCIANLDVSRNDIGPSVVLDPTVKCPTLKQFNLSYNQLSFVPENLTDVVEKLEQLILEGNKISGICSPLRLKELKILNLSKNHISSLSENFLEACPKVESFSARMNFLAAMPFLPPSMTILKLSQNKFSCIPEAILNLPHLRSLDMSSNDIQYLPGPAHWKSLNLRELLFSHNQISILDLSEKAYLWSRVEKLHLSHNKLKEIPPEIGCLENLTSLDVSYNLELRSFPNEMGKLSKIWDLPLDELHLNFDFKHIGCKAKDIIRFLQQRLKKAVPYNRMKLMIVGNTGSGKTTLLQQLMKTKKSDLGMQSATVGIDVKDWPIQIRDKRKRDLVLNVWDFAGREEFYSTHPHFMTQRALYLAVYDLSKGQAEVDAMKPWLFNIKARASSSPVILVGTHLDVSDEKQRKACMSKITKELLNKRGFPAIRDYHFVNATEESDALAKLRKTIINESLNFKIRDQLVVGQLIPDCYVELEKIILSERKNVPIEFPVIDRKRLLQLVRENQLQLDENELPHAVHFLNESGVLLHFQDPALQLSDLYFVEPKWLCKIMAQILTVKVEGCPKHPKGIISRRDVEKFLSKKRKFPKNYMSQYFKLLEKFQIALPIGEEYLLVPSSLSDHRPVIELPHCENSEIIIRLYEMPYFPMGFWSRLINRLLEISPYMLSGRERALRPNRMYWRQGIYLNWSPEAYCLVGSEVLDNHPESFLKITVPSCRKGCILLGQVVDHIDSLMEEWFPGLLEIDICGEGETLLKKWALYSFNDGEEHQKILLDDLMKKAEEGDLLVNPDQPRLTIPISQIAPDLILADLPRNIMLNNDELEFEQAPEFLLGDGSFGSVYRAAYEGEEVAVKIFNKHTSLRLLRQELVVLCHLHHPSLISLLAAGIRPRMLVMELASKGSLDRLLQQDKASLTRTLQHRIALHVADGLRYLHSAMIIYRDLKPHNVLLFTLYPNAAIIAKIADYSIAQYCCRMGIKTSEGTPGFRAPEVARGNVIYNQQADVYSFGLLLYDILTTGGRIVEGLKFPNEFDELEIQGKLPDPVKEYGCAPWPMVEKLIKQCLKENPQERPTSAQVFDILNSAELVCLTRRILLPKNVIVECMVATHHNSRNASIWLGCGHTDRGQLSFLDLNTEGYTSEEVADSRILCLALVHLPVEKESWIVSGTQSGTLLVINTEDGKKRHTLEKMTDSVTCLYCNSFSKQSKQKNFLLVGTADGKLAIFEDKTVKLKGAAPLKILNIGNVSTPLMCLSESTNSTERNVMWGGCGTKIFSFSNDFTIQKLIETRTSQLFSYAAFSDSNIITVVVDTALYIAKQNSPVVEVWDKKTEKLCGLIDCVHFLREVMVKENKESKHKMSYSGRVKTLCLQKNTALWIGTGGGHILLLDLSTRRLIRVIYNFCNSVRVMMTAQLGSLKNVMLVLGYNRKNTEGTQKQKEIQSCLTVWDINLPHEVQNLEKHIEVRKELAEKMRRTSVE

Structure (SMILES) | IC50
[2H]C([2H])([2H])N1CCC(n2cc(Nc3ncc(C(F)(F)F)c(NCC)n3)c(C)n2)(C([2H])([2H])[2H])C1=O (single isomer, unassigned) [Compound 23] | < 30 nM
[2H]C([2H])([2H])N1CCC(n2cc(Nc3ncc(C(F)(F)F)c(NCC)n3)c(C)n2)(C([2H])([2H])[2H])C1=O (single isomer, unassigned) [Compound 24] | < 30 nM
CNc1nc(Nc2cnn(C3CN(C4COC4)CCC3(F)F)c2Cl)ncc1C(F)(F)F (single isomer, unassigned) [Compound 28] | < 30 nM
CNc1nc(Nc2cnn(C3CN(C4COC4)CCC3(F)F)c2Cl)ncc1C(F)(F)F (single isomer, unassigned) [Compound 29] | < 30 nM
CNc1nc(Nc2cnn(C3CCCC3(C)O)c2C)ncc1C(F)(F)F (single isomer, unassigned) [Compound 30] | 30 to 60 nM
CNc1nc(Nc2cnn(C3CCCC3(C)O)c2C)ncc1C(F)(F)F (single isomer, unassigned) [Compound 31] | 30 to 60 nM
CCNc1nc(Nc2cnn3c2CC(C#N)C3)ncc1C(F)(F)F (single isomer, unassigned) [Compound 52A] | < 30 nM
CCNc1nc(Nc2cnn3c2CC(C#N)C3)ncc1C(F)(F)F (single isomer, unassigned) [Compound 52B] | < 30 nM
CCNc1nc(Nc2cnn3c2CC(n2nccn2)C3)ncc1C(F)(F)F (single isomer, unassigned) [Compound 54A] | < 30 nM
CCNc1nc(Nc2cnn3c2CC(n2nccn2)C3)ncc1C(F)(F)F (single isomer, unassigned) [Compound 54B] | < 30 nM
COc1nc(Nc2cn(C3(C)CCNC3=O)nc2C)ncc1Br (single isomer, unassigned) [Compound 64A] | < 30 nM
COc1nc(Nc2cn(C3(C)CCNC3=O)nc2C)ncc1Br (single isomer, unassigned) [Compound 64B] | < 30 nM
COc1nc(Nc2cn(C3(C)CCOC3=O)nc2C)ncc1Br (single isomer, unassigned) [Compound 90] | < 30 nM
CCNc1nc(Nc2cnn(C3CCCN(CC(F)F)C3)c2C)ncc1C(F)(F)F (single isomer, unassigned) [Compound 92] | < 30 nM
CNc1nc(Nc2cn(C3(C)CCOC3=O)nc2Cl)ncc1C(F)(F)F (single isomer, unassigned) [Compound 99] | < 30 nM
CCNc1nc(Nc2cn(C3(C)CCOC3=O)nc2C)ncc1C(F)(F)F (single isomer, unassigned) [Compound 100] | < 30 nM
CNc1nc(Nc2cnn(C3CC4CCC(C3)N4C)c2C)ncc1C(F)(F)F (stereo not shown) [Compound 1] | < 30 nM
CNc1nc(Nc2cn(C3CC4CCC(C3)N4C)nc2C)ncc1C(F)(F)F (stereo not shown) [Compound 2] | > 60 nM

Structure (SMILES) | IC50
CNc1nc(Nc2cn(C3C[C@@H]4C[C@@H]4C3)nc2C)ncc1C(F)(F)F (stereo partly shown) [Compound 3] | < 30 nM
CNc1nc(Nc2cnn(C3C[C@@H]4C[C@@H]4C3)c2C)ncc1C(F)(F)F (stereo partly shown) [Compound 4] | < 30 nM
Cc1nn(C(C)(C)C#N)cc1Nc1ncc(C(F)(F)F)c(NC2C3CC2C3)n1 (stereo not shown) [Compound 5] | < 30 nM
CNc1nc(Nc2cn(CC34CC(C#N)(C3)C4)nc2C)ncc1C(F)(F)F [Compound 6] | > 60 nM
CNc1nc(Nc2cnn(CC34CC(C#N)(C3)C4)c2C)ncc1C(F)(F)F [Compound 7] | < 30 nM
CNc1nc(Nc2cnn3c2CC2(CC2)C3)ncc1C(F)(F)F [Compound 8] | < 30 nM
CNc1nc(Nc2cnn(C3C[C@@H]4[C@H](C3)C4(F)F)c2Cl)ncc1C(F)(F)F (stereo partly shown) [Compound 9] | < 30 nM
CNc1nc(Nc2cn(C3C[C@@H]4[C@H](C3)C4(F)F)nc2Cl)ncc1C(F)(F)F (stereo partly shown) [Compound 10] | > 60 nM
CNc1nc(Nc2cnn(C3C[C@@H]4[C@H](C3)C4(F)F)c2C)ncc1C(F)(F)F (stereo partly shown) [Compound 11] | < 30 nM
CNc1nc(Nc2cn(C3C[C@@H]4[C@H](C3)C4(F)F)nc2C)ncc1C(F)(F)F (stereo partly shown) [Compound 12] | < 30 nM
CNc1nc(Nc2cnn(C3CC4(COC4)C3)c2Cl)ncc1C(F)(F)F [Compound 13] | < 30 nM
CNc1nc(Nc2cn(C(C)(C)c3ncn(C)n3)nc2C)ncc1C(F)(F)F [Compound 14] | < 30 nM
CNc1nc(Nc2cn(C(C)(C)c3ccn(C)n3)nc2C)ncc1C(F)(F)F [Compound 15] | < 30 nM
CNc1nc(Nc2cnn3c2CC2(COC2)C3)ncc1C(F)(F)F [Compound 16] | < 30 nM
CNc1nc(Nc2cnn3c2OCC2(CC2)C3)ncc1C(F)(F)F [Compound 17] | < 30 nM
CCNc1nc(Nc2cn(C(C)(C)c3ccn(C)n3)nc2C)ncc1C(F)(F)F [Compound 18] | < 30 nM
Cc1nn(C(C)(C)C#N)cc1Nc1nc2c(c(C3CC3)n1)C1(CC1)CN2 [Compound 19] | < 30 nM
CCNc1nc(Nc2cnn3c2CC2(COC2)C3)ncc1C(F)(F)F [Compound 20] | < 30 nM

Results, then the compound that gave them:

IC50 | Structure (SMILES)
< 30 nM | COc1nc(Nc2cn(C3(C)CCOC3=O)nc2C)ncc1Br (single isomer, unassigned) [Compound 102]
< 30 nM | Cc1nn(C2(C)CCOC2=O)cc1Nc1ncc(C(F)(F)F)c(C2CC2)n1 (single isomer, unassigned) [Compound 103]
< 30 nM | CNc1nc(Nc2cn(C3(C)CCOC3=O)nc2C2CC2)ncc1C(F)(F)F (single isomer, unassigned) [Compound 113]
< 30 nM | CCNc1nc(Nc2cn(C3(C)CCOC3=O)nc2C2CC2)ncc1Br (single isomer, unassigned) [Compound 115]
< 30 nM | CCNc1nc(Nc2cnn(C3CCCN(CC(F)F)C3)c2C)ncc1C(F)(F)F (single isomer, unassigned) [Compound 116]
< 30 nM | CCNc1nc(Nc2cn(C3(C)CCOC3=O)nc2Cl)ncc1C(F)(F)F (single isomer, unassigned) [Compound 117]
< 30 nM | CNc1nc(Nc2cn(C3(C)CCOC3=O)nc2C)ncc1C(F)(F)F (single isomer, unassigned) [Compound 119]
< 30 nM | Cc1nn(C2(C)CCOC2=O)cc1Nc1ncc(C(F)(F)F)c(C2CC2)n1 (single isomer, unassigned) [Compound 120]
< 30 nM | CNc1nc(Nc2cn(C3(C)CCOC3=O)nc2Cl)ncc1C(F)(F)F (single isomer, unassigned) [Compound 123]
< 30 nM | CNc1nc(Nc2cn(C3(C)CCOC3=O)nc2C)ncc1C(F)(F)F (single isomer, unassigned) [Compound 124]
< 30 nM | CCNc1nc(Nc2cn(C3(C)CCOC3=O)nc2C)ncc1C(F)(F)F (single isomer, unassigned) [Compound 125]
< 30 nM | CCNc1nc(Nc2cnn(C3CNCCC3(F)F)c2C)ncc1C(F)(F)F (single isomer, unassigned) [Compound 200]
< 30 nM | CCNc1nc(Nc2cnn(C3CNCCC3(F)F)c2C)ncc1C(F)(F)F (single isomer, unassigned) [Compound 201]
< 30 nM | CCN1CCC(F)(F)C(n2ncc(Nc3ncc(C(F)(F)F)c(NC)n3)c2Cl)C1 (single isomer, unassigned) [Compound 202]
< 30 nM | CCN1CCC(F)(F)C(n2ncc(Nc3ncc(C(F)(F)F)c(NC)n3)c2Cl)C1 (single isomer, unassigned) [Compound 203]
< 30 nM | CCNc1nc(Nc2cnn(C3CN(CC)CCC3(F)F)c2Cl)ncc1C(F)(F)F (single isomer, unassigned) [Compound 204]
< 30 nM | CCNc1nc(Nc2cnn(C3CN(CC)CCC3(F)F)c2Cl)ncc1C(F)(F)F (single isomer, unassigned) [Compound 205]
< 30 nM | CCNc1nc(Nc2cn(C3C[C@@H]3C#N)nc2Cl)ncc1C(F)(F)F (single isomer, unassigned) [Compound 206]
< 30 nM | CCNc1nc(Nc2cn(C3C[C@H]3C#N)nc2Cl)ncc1C(F)(F)F (single isomer, unassigned) [Compound 207]
< 30 nM | CNc1nc(Nc2cn(C3C[C@@H]3C#N)nc2C2CC2)ncc1C(F)(F)F (single isomer, unassigned) [Compound 208]
< 30 nM | CNc1nc(Nc2cn(C3C[C@H]3C#N)nc2C2CC2)ncc1C(F)(F)F (single isomer, unassigned) [Compound 209]
< 30 nM | N#C[C@@H]1CC1n1cc(Nc2ncc(C(F)(F)F)c(NCC(F)F)n2)c(C2CC2)n1 (single isomer, unassigned) [Compound 210]
< 30 nM | N#C[C@@H]1CC1n1cc(Nc2ncc(C(F)(F)F)c(NCC(F)F)n2)c(C2CC2)n1 (single isomer, unassigned) [Compound 211]
< 30 nM | COc1nc(Nc2cn(C3C[C@H]3C#N)nc2C2CC2)ncc1Br (single isomer, unassigned) [Compound 213]
< 30 nM | CCNc1nc(Nc2cn(C3C[C@@H]3C#N)nc2C2CC2)ncc1Br (single isomer, unassigned) [Compound 214]
< 30 nM | CCNc1nc(Nc2cn(C3C[C@H]3C#N)nc2C2CC2)ncc1Br (single isomer, unassigned) [Compound 215]
< 30 nM | CCNc1nc(Nc2cn(C3(CF)CCOC3=O)nc2C)ncc1C(F)(F)F (single isomer, unassigned) [Compound 216]
< 30 nM | CCNc1nc(Nc2cn(C3(CF)CCOC3=O)nc2C)ncc1C(F)(F)F (single isomer, unassigned) [Compound 217]

— patent US9932325B2 (Denali Therapeutics Inc., priority 2015, dated 2018)
